# What was measured:
# Assay type in all cases: in vivo
# [1] = system: dystrophin; test: Dystrophin in tibialis anterior muscle of mdx mice by immunohistochemistry; settings: treated for 14 weeks from 6 weeks of age, prednisone 1.5 mg/kg per day, ibuprofen 25 mg/kg per day, PBMT 3 times a week, FIG. 18
# Description: Mice were randomly divided into 7 different experimental groups: Wild Type (WT), Placebo-control (mdx mice), Prednisone (mdx mice), NSAID (mdx mice), […], and PBMT+NSAID (mdx mice). Prednisone (glucocorticoid) treatment was administered to animals daily with a dose of 1.5 mg/kg per day; NSAID treatment with ibuprofen was also administered to animals daily with a dose of 25 mg/kg per day. PBMT was performed employing a cluster probe (Multi Radiance Medical, Solon, Ohio) with 9 diodes (1 super-pulsed laser diode (905 nm), four LED diodes (875 nm), and 4 LED diodes (650 nm). PBMT was applied 3 times a week with direct contact to the animal's skin on hindlimb at a single point (tibialis anterior muscle—bilaterally). For combined treatments, each modality was applied as described previously. All treatments were performed during 14 weeks and started with animals at 6 weeks of age. The analysis consisted of muscle morphology, dystrophin through itntnunohistochetnistry and functional performance.
# [2] = system: mdx mice; test: Skeletal muscle tissue morphology (histological sections, HE) in mdx mice; settings: treated for 14 weeks from 6 weeks of age, tibialis anterior muscle, FIGS. 13-17
# Description: The tibialis anterior muscles of the animal's hind paw were collected and stored in 10% buffered formalin for histological processing; then, hematoxylin and eosin staining was performed in a routine method. Slides were photographed, and the morphology of the skeletal striated muscle fibers was analyzed (Eclipse E-200; Nikon, Tokyo, Japan). Images of all groups were obtained using the 400x magnification. The images were presented with a similar photographic pattern.
# (§1) Mice were randomly divided into 7 different experimental groups: Wild Type (WT), Placebo-control (mdx mice), Prednisone (mdx mice), NSAID (mdx mice), […], and PBMT+NSAID (mdx mice). Prednisone (glucocorticoid) treatment was administered to animals daily with a dose of 1.5 mg/kg per day; NSAID treatment with ibuprofen was also administered to animals daily with a dose of 25 mg/kg per day. […]
# [3] = system: mdx mice; test: Functional performance assessment in mdx mice; settings: treated for 14 weeks from 6 weeks of age, FIG. 19
# Description: The PBMT was analyzed using a functional performance evaluation protocol. The functional performance evaluation protocol included the animal climbing stairs with the following dimensions (1×0.09 m, distance between the steps of 0.5 cm and)80° using the animal's body weight (the protocol began with the animal's familiarization, in two sessions with a 24-h interval between the sessions). The aim of the sessions was to teach the mouse to move up the steps and consisted of three repetitions to the top, with a 60 s interval to rest. If necessary, a clamp stimulus for the animal to start moving was applied. After this familiarization, the assessments were performed before the treatments begin and 24-h after the last treatment, in order to evaluate how many times each mouse was able to climb up the stairs until the animal came to fatigue. Fatigue was identified when the animal could no longer perform the activity.
# as §1
SMILES,dystrophin compared to the placebo-control group [1],morphological aspects of skeletal muscle [2],muscular function compared to the placebo-control group [3]
C[C@]12C=CC(=O)C=C1CC[C@@H]1[C@@H]2C(=O)C[C@@]2(C)[C@H]1CC[C@]2(O)C(=O)CO [Prednisone],increased dystrophin,improvement in the morphological aspects of skeletal muscle,improved muscular function
"CC(C)Cc1ccc(C(C)C(=O)O)cc1 (stereo not shown) [NSAID, ibuprofen]",no significant increase in dystrophin,,

# — patent US20200376291A1, “PHOTOBIOMODULATION THERAPY TO DELAY DYSTROPHY PROGRESSION” (Multi Radiance Medical, priority 2017, published 2020)
